Bridges are numbered along the chain shown (N, C = ends). Roman numbers before positions name the chains, in order. Where no end group is shown, it is not given here.

The record followed here is paper PMC11790763, “A Peptide Motif Covering Splice Site B in Neuroligin-1 Binds to Aβ and Acts as a Neprilysin Inhibitor” (Molecular Neurobiology, 2024).

One assay concerns the target T1, Aβ1-40 (Homo sapiens, UniProt P05067).
T1 construct: biotinylated Aβ1-40, at final concentration 400 nM; purchased Bachem AG (Bubendorf, Switzerland) or Schafer-N; host or cells: synthetic peptide
Kind of assay: Competitive ELISA, binding to biotinylated Aβ1-40. Here is the method: NL1 and NL1-derived peptide binding to Aβ was measured by competitive ELISA using the shorter Aβ1-40 peptide with a slower polymerization constant, optimized for this binding assay. Recombinant NL1 (3.125 nM) was immobilized on a poly-sorb 96-well plate (NUNC, Roskilde, Denmark) using sodium bicarbonate buffer (pH 9.6), and left overnight at 4 °C, followed by washing with PBST buffer (PBS supplemented with 0.1% [vol/vol] Tween-20, pH 7.4). In separate tubes, biotinylated Aβ1-40, at final concentration 400 nM, was premixed with serially diluted NL1 or NL1-derived peptides for 30 min. A reversed version of Aβ (Aβ40-1) was used as the respective negative control (Supplementary Fig. 1). After preincubation, the samples were centrifuged at 20,000 × g for 10 min at 4 °C and 100 μl of the mixtures were transferred in triplicates onto the precoated ELISA plate. Plates were incubated at room temperature for 4 h, followed by washing and incubation with streptavidin-HRP conjugate (1:1000, 1 h; Dako, Glostrup, Denmark). The signal was developed with TMB ONE (KEM-EN-TEC, Denmark), and the reaction was terminated with 0.2 M H2SO4. Absorbance was measured at 450 nm on a Wallac VICTOR2 1420 Multilabel Counter (PerkinElmer, Hvidovre, Denmark). KD values were derived by sigmoidal dose–response (variable slope) fit of NL1 and neurolide dose–response curves after log transformation according to GraphPad Prism (version 6, GraphPad, San Diego, CA, USA). Obtained inhibitory concentration IC50 value was interpreted as KD value.

A further assay concerns the target T2, brain-derived NEP (Mus musculus, UniProt Q61391).
T2 construct: Clear supernatants were used as membrane-extracted fractions; from tissue; host or cells: adult mouse brain without cerebellum, Triton X-100-extracted membrane fraction
T2 sequence (Q61391 1-750): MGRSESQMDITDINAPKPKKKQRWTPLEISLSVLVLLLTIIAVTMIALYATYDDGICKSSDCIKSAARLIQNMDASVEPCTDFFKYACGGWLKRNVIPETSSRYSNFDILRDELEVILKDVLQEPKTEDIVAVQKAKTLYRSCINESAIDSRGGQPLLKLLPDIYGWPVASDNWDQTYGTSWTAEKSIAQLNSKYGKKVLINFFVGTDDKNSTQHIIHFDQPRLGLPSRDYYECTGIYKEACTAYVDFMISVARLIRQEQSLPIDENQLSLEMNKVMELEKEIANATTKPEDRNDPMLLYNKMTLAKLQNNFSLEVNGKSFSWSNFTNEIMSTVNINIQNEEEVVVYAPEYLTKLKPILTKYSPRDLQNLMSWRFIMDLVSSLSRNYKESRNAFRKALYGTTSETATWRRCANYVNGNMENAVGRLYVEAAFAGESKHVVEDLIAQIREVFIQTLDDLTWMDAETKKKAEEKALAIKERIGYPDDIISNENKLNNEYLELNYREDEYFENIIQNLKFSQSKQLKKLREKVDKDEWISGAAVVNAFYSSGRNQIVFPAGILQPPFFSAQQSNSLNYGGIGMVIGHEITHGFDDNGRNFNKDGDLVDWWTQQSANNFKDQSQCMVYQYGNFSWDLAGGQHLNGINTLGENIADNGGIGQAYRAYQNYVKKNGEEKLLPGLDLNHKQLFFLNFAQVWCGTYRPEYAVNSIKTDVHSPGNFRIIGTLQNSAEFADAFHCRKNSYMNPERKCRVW
Kind of assay: Neprilysin activity in NEP-enriched brain membrane fraction of 5XFAD mice. The class given is biochemical, mouse (5XFAD). The following applies: 5XFAD mice membrane fraction; neurolide 10 μM; n = 6. Here is the method: To measure NEP activity in brain tissue, whole brains without cerebellum were dissected from adult mice (C57Bl/6j or 5XFAD) and homogenized with a Teflon-glass homogenizer in five volumes (w/v) of ice-cold lysis buffer containing PBS (pH 7.4), 0.25 M sucrose and protease inhibitor cocktail (Complete™, EDTA-free, Roche Diagnostics, Indianapolis, IN). The homogenates were centrifuged at 9000 × g for 15 min at 4 °C. The supernatants were further centrifuged at 20,000 × g at 4 °C for 20 min. The resulting pellets were solubilized in resuspension buffer containing PBS (pH 7.4) and 1% Triton X-100 for 1 h on ice and again centrifuged at 20,000 × g at 4 °C for 20 min. Clear supernatants were used as membrane-extracted fractions. Protein concentrations of Triton-extracted membrane fractions were determined using the Pierce BCA Protein Assay kit (Thermo Fisher Scientific). The standard assay mixture consisted of membrane fraction containing 40 μg total protein diluted in 40 μl of dilution buffer, 10 μl of testing compound (NL1, neurolide or vehicle), and 50 μl of NEP substrate (5-FAM/QXL; Anaspec) in a total volume of 100 μl. The reaction was initiated by adding substrate to the assay mixture. […] Fluorescence was measured at Ex/Em = 485/535 nm every 20 min for 2 h. The data were expressed as percentage of relative activity of neprilysin.

For the next assay, the system named is 5XFAD mice. Description: GFAP immunoreactivity (astrogliosis) in cortex. The format is in vivo, mouse. The following applies: 10 mg/kg s.c. three times a week for 10 weeks, neurolide n = 11 versus vehicle n = 13, p < 0.01. Here is the method:
At the age of 2 months, 5XFAD and WT mice were injected subcutaneously (s.c.) with either neurolide (10 mg/kg) or saline in a volume of 0.1 ml/10 g of body weight three times a week for 10 weeks.
After 10 weeks of treatment, mice were transcardially perfused with 0.1 M PBS, pH 7.4 under deep pentobarbital anesthesia (intraperitoneal, 200 mg/kg). The left brain hemispheres were postfixed in 4% paraformaldehyde in PBS. The brain hemispheres were further dehydrated in ethanol, cleared, embedded in paraffin blocks and serially sectioned into 7-μm coronal sections through the entire brain hemisphere. Parallel series of sections were collected, consisting of 12 equally spaced Sects. (400 μm apart). One of the series was stained with 1% Thioflavin-S for histological evaluation of Aβ plaque formation. Another series was used for immunohistochemical staining of GFAP + astrocytes as described previously. Extracellular Aβ plaque load was assessed in cortex, hippocampus, striatum, thalamus, and hypothalamus. GFAP-positive astrocytes were assessed in motor cortex. Serial super images of whole-brain sections were acquired using an Olympus BX-51 microscope equipped with the Visiopharm Integrator System software (Visiopharm) and analyzed using the ImageJ software package. […] The area, covered by Thioflavin-S or GFAP staining, was measured in selected regions.

T1 sequence (P05067 672-711): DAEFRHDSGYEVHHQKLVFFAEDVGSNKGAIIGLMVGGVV

On to “I: SEGNRWSNSTKGLFQRAKK-NH2 / II: SEGNRWSNSTKGLFQRAK / III: SEGNRWSNSTKGLFQRA / IV: SEGNRWSNSTKGLFQRA (amide I:18-IV:C, I:19-II:C, II:18-III:C; C-terminus assumed) [neurolide]”, for which, at Aβ1-40, the “binding affinity to Aβ, times lower than that of the parent sNL1 domain” value is “approximately 2 times”. The “NEP activity compared to untreated 5XFAD control” value on brain-derived NEP is “significant decrease”. In addition, the “area of GFAP-immunoreactivity (gliosis) in the cortex” value with 5XFAD mice is on record as “significant increase”.
